Test results taken from the OPERA property sets (Mansouri et al. 2018).
In brackets after ≈: the same amount, converted by molar mass. Blank lines part the entries; values can stand above or below the molecule they belong to.

Compound: CCOP(=S)(OCC)Oc1ncn(-c2ccccc2)n1
logP: 3.34
solubility (pH 7.0, 20 °C): 0.0992 mM (≈ 31.1 µg/mL)

solubility (pH 7.4, 20 °C): 0.00217 mM (≈ 1 µg/mL)
Compound: NC(=O)c1nc(-c2ccccc2)n(-c2ccc(Cl)c(COCC(F)(F)C(F)(F)F)c2)n1

Compound: CNC(=O)N(C)c1nnc(C(C)(C)C)s1
solubility (25 °C): 10.5 mM (≈ 2400 µg/mL)

solubility (pH 5.0, 20 °C): 0.0343 mM (≈ 14.9 µg/mL)
logD (pH 7.0): -0.02
Compound: COC(=O)c1c(Cl)nn(C)c1S(=O)(=O)NC(=O)Nc1nc(OC)cc(OC)n1

Compound: O=C(NC(=O)c1c(F)cccc1F)Nc1ccc(Cl)c(Oc2ncc(C(F)(F)F)cc2Cl)c1
solubility (25 °C): < 3.95e-05 mM

logP: 2.4
solubility: 0.00427 mM (≈ 1 µg/mL)
Compound: CC#CCOC(C)c1ccc(OC)c(OC)c1 (centres undefined)

Compound: Cc1cc(C)nc(Nc2ccccc2)n1
logD (pH 6.1): 2.84
solubility (pH 6.1, 25 °C): 0.607 mM (≈ 121 µg/mL)

logP: 4.3
solubility (25 °C): 0.0027 mM (≈ 0.92 µg/mL)
Compound: CCOCOc1ccc(C(=O)Nc2cccc(Cl)c2Cl)cc1

Compound: O=c1oc2ccccc2c(O)c1C1CC(c2ccc(-c3ccc(Br)cc3)cc2)Cc2ccccc21 (centres undefined)
logP: 8.5

Compound: Nc1c(Cl)cc([N+](=O)[O-])cc1Cl
logP: 2.8

logP: 4.02
solubility (25 °C): 0.0759 mM (≈ 20 µg/mL)
Compound: CC(C)(SC(=O)N1CCCCC1)c1ccccc1

Compound: CC(C)(C)c1cc([N+](=O)[O-])cc([N+](=O)[O-])c1O
solubility (pH 5.0, 20 °C): 0.0187 mM (≈ 4.5 µg/mL)

Compound: CCCOCCN(C(=O)CCl)c1c(CC)cccc1CC
logP: 4.08
solubility (20 °C): 0.16 mM (≈ 50 µg/mL)

Compound: Cc1cc(C)nc(NC(=O)NS(=O)(=O)c2ccccc2C(=O)OC2COC2)n1
solubility (pH 5.1, 25 °C): 0.128 mM (≈ 52 µg/mL)

Compound: Oc1ccc(Cl)cc1Cc1cc(Cl)ccc1O
solubility (25 °C): 0.111 mM (≈ 30 µg/mL)

Compound: O=C(NC(=O)c1c(F)cccc1F)Nc1cc(Cl)c(OC(F)(F)C(F)F)c(Cl)c1
logP: 5.68

Compound: CS/C(C)=N/OC(=O)N(C)SN(C)C(=O)O/N=C(\C)SC
solubility (25 °C): 0.0729 mM (≈ 25.8 µg/mL)

solubility (pH 7.0, 20 °C): 4780 mM (≈ 900000 µg/mL)
Compound: CCCOC(=O)NCCCN(C)C

Compound: CC(C)=C1OC(=O)N(c2cc(OC3CCCC3)c(Cl)cc2F)C1=O
solubility (25 °C): 0.000611 mM (≈ 0.216 µg/mL)

Compound: CC#Cc1cc(C)nc(Nc2ccccc2)n1
logP: 3.28

logP: 4.75
solubility (25 °C): 0.0422 mM (≈ 14.3 µg/mL)
Compound: CCCCOCCOCCOCc1cc2c(cc1CCC)OCO2

logP: 1.39
solubility (20 °C): 0.518 mM (≈ 146 µg/mL)
Compound: Cc1cccc(C)c1N(C(=O)CCl)C1CCOC1=O (centres undefined)

Compound: O=C(Nc1ccc(F)cc1F)c1cccnc1Oc1cccc(C(F)(F)F)c1
solubility (25 °C): < 0.000127 mM

Compound: CCOP(=O)(SC(C)CC)N1CCSC1=O (centres undefined)
logP: 1.68

Compound: CCCN(CCC)c1c([N+](=O)[O-])cc(S(N)(=O)=O)cc1[N+](=O)[O-]
logP: 3.73

logP: 5.9
solubility (20 °C): 0.0133 mM (≈ 7.2 µg/mL)
Compound: CC[C@H]1O[C@]2(CC[C@@H]1C)C[C@@H]1C[C@@H](CC=C(C)C[C@@H](C)C=CC=C3CO[C@@H]4[C@H](O)C(C)=C[C@@H](C(=O)O1)[C@]34O)O2

Compound: Cc1cc(C2CC2)nc(Nc2ccccc2)n1
logP: 4

Compound: ClC=CCCl (mixture of isomers)
logP: 2.04

Compound: Cc1cccc(C)c1N(Cn1cccn1)C(=O)CCl
logP: 2.13

logP: 3.69
Compound: CC(C)OC(=O)[C@@H](C)N(C(=O)c1ccccc1)c1ccc(F)c(Cl)c1

logD (pH 5.0): 1.1
solubility (pH 5.0, 25 °C): 0.0796 mM (≈ 32 µg/mL)
Compound: COc1nc(C)nc(NC(=O)NS(=O)(=O)c2ccccc2OCCCl)n1

Compound: CC1(C)[C@H](C(=O)O[C@H](C#N)c2cccc(Oc3ccccc3)c2)[C@@H]1/C=C\C(=O)OC(C(F)(F)F)C(F)(F)F
solubility (25 °C): 3.69e-05 mM (≈ 0.02 µg/mL)

Compound: CCOP(=S)(OCC)Oc1ccc(=O)n(-c2ccccc2)n1
logP: 3.2
solubility (20 °C): 0.294 mM (≈ 100 µg/mL)

Compound: O=C([O-])C(F)(F)C(F)F.[Na+]
logP: 1.32
solubility (20 °C): 131 mM

Compound: COC(=O)c1c(C(F)F)nc(C(F)(F)F)c(C2=NCCS2)c1CC(C)C
logP: 3.89

Compound: C=C/C=C\CC1=C(C)[C@@H](OC(=O)[C@@H]2[C@@H](/C=C(\C)C(=O)OC)C2(C)C)CC1=O
logP: 4.3

logP: 4.07
Compound: COC(=O)C(C)Oc1ccc(Oc2ncc(C(F)(F)F)cc2Cl)cc1 (centres undefined)

Compound: CCOc1ccc([Si](C)(C)CCCc2ccc(F)c(Oc3ccccc3)c2)cc1
logP: 8.2

Compound: CN(C)S(=O)(=O)N(SC(F)(Cl)Cl)c1ccccc1
logP: 3.7

Compound: CCN(CC)c1nc(C)cc(OP(=S)(OC)OC)n1
solubility (pH 7.3, 20 °C): 0.0455 mM (≈ 13.9 µg/mL)

Compound: COP(=O)(OC)SCn1c(=O)oc2cc(Cl)cnc21
logP: 1.05

Compound: O=C(NC(=O)c1c(F)cccc1F)Nc1cc(Cl)c(F)c(Cl)c1F
solubility (23 °C): 5.12e-05 mM (≈ 0.0195 µg/mL)

Compound: C/C=C(\C)C(=O)O[C@H]1C[C@@H](OC(C)=O)[C@@]2(C(=O)OC)CO[C@H]3[C@@H](O)[C@@](C)([C@]45O[C@@]4(C)[C@H]4C[C@@H]5O[C@@H]5OC=C[C@@]54O)[C@H]4[C@]1(CO[C@]4(O)C(=O)OC)[C@@H]32
logP: 1.09

Compound: O=C(NC(=O)c1c(F)cccc1F)Nc1ccc(OC(F)(F)C(F)OC(F)(F)F)c(Cl)c1 (centres undefined)
logP: 5.27
solubility (25 °C): 0.000108 mM (≈ 0.0531 µg/mL)

Compound: CC(C)(C)[C@H](O)/C(=C\c1ccc(Cl)cc1)n1cncn1
solubility (25 °C): 0.0288 mM (≈ 8.41 µg/mL)

Compound: CNC(=O)Oc1cccc(N=CN(C)C)c1.Cl
solubility (25 °C): 3190 mM

Compound: CS(=O)(=O)c1cc(C(F)(F)F)ccc1C(=O)c1cnoc1C1CC1
logP: 2.32
solubility (pH 5.5, 20 °C): 0.0173 mM (≈ 6.2 µg/mL)

logP: 5.03
solubility (25 °C): 0.00176 mM (≈ 0.59 µg/mL)
Compound: CCCCCC(C)OC(=O)COc1ccc(Cl)c2cccnc12 (centres undefined)

Compound: C=CCCCOC(=O)C(CC)N(Cc1ccco1)C(=O)n1ccnc1 (centres undefined)
logP: 3

logP: 4.31
Compound: CC1CCCCN1CCCOC(=O)c1ccc(Cl)c(Cl)c1 (centres undefined)

Compound: O=C(NC(=O)c1c(F)cccc1F)Nc1cc(Cl)c(OC(F)(F)C(F)C(F)(F)F)cc1Cl (centres undefined)
logP: 5.12

logP: 3.53
solubility (20 °C): 0.034 mM (≈ 11 µg/mL)
Compound: COc1ccsc1CN(C(=O)CCl)c1c(C)cccc1C
